Laboratory results published in ChEMBL document CHEMBL1141784, “Phaeochromycins A-E, anti-inflammatory polyketides isolated from the soil actinomycete Streptomyces phaeochromogenes LL-P018” (J Nat Prod, 2005).

Target: MAP kinase-activated protein kinase 2 (Homo sapiens, UniProt P49137)
Assay: Inhibition of human recombinant MK2 by ELISA

MAP kinase-activated protein kinase 2, sequence (P49137 whole entry): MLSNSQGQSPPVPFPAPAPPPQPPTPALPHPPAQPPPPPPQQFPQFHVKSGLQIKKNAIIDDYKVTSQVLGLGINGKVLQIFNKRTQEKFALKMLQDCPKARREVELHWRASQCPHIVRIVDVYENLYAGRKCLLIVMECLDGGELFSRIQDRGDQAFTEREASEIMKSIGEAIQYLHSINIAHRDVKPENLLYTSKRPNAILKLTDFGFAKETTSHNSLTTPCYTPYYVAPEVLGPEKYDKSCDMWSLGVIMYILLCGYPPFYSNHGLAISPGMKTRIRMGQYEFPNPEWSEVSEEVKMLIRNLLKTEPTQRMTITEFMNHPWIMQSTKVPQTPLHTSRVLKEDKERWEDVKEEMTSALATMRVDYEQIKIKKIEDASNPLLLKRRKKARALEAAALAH

| IC50 [µM] | Structure (SMILES) |
| --- | --- |
| 130 | CCCc1cc(=O)c2c(Cc3cc(O)cc(=O)o3)cccc2o1 [PHAEOCHROMYCIN C] |
| 39 | CCCc1cc(O)c2c(O)cccc2c1-c1cc(O)cc(=O)o1 [PHAEOCHROMYCINS A] |
